Test results from patent publication US20220168431A1, “METHODS OF TREATING CANCER USING TRIMETAZIDINE-BASED COMPOUNDS” (IMBRIA PHARMACEUTICALS, INC., priority 2019, published 2022).

Columns and labels:
Bradykinin B2 = Bradykinin B2 (Homo sapiens, UniProt P30411); assay type: binding; conditions: 10 μM CV-8814
Adenosine A1 = Adenosine A1 (Homo sapiens, UniProt P30542); assay type: binding; conditions: 10 μM CV-8814
Androgen (Testosterone) = Androgen (Testosterone) (Homo sapiens, UniProt P10275); assay type: binding; conditions: 10 μM CV-8814
[1] = biological target: Serotonin (5-Hydroxytryptamine) 5-HT3 (Homo sapiens, UniProt P46098); assay type: binding; conditions: 10 μM CV-8814
[2] = biological target: Nicotinic Acetylcholine α1, Bungarotoxin (Homo sapiens, UniProt P02708+P07510+Q07001); assay: biochemical; assay type: binding
Melanocortin MC4 = Melanocortin MC4 (Homo sapiens, UniProt P32245); assay type: binding; conditions: 10 μM CV-8814
[3] = biological target: Cholinesterase, Acetyl, ACES (Homo sapiens, UniProt P22303); assay type: biochemical; conditions: 10 μM CV-8814
GABAB1A = GABAB1A (Homo sapiens, UniProt Q9UBS5); assay type: binding; conditions: 10 μM CV-8814
Adenosine A2A = Adenosine A2A (Homo sapiens, UniProt P29274); assay type: binding; conditions: 10 μM CV-8814
Monoamine Oxidase MAO-A = Monoamine Oxidase MAO-A (Homo sapiens, UniProt P21397); assay type: biochemical; conditions: 10 μM CV-8814
Dopamine D2S = Dopamine D2S (Homo sapiens, UniProt P14416); assay type: binding; conditions: 10 μM CV-8814
Cyclooxygenase COX-2 = Cyclooxygenase COX-2 (Homo sapiens, UniProt P35354); assay type: biochemical; conditions: 10 μM CV-8814
Adrenergic β1 = Adrenergic β1 (Homo sapiens, UniProt P08588); assay type: binding; conditions: 10 μM CV-8814
Muscarinic M1 = Muscarinic M1 (Homo sapiens, UniProt P11229); assay type: binding; conditions: 10 μM CV-8814
Calcium Channel N-Type = Calcium Channel N-Type (Rattus norvegicus, UniProt Q02294); assay type: binding; conditions: 10 μM CV-8814
Vasopressin V1A = Vasopressin V1A (Homo sapiens, UniProt P37288); assay type: binding; conditions: 10 μM CV-8814
[4] = biological target: Transporter, Norepinephrine (NET) (Homo sapiens, UniProt P23975); assay type: binding; conditions: 10 μM CV-8814
[5] = biological target: Protein Tyrosine Kinase, LCK (Homo sapiens, UniProt P06239); assay type: biochemical; conditions: 10 μM CV-8814
[6] = biological target: Peptidase, Angiotensin Converting Enzyme (Oryctolagus cuniculus, UniProt P12822); assay type: biochemical, rabbit; conditions: 10 μM CV-8814
[7] = biological target: Transporter, Dopamine (DAT) (Homo sapiens, UniProt Q01959); assay type: binding; conditions: 10 μM CV-8814
[8] = biological target: Serotonin (5-Hydroxytryptamine) 5-HT2A (Homo sapiens, UniProt P28223); assay type: binding; conditions: 10 μM CV-8814
Chemokine CCR1 = Chemokine CCR1 (Homo sapiens, UniProt P32246); assay type: binding; conditions: 10 μM CV-8814
Cyclooxygenase COX-1 = Cyclooxygenase COX-1 (Homo sapiens, UniProt P23219); assay type: biochemical; conditions: 10 μM CV-8814
Glucocorticoid = Glucocorticoid (Homo sapiens, UniProt P04150); assay type: binding; conditions: 10 μM CV-8814
Neuropeptide Y Y1 = Neuropeptide Y Y1 (Homo sapiens, UniProt P25929); assay type: binding; conditions: 10 μM CV-8814
Progesterone PR-B = Progesterone PR-B (Homo sapiens, UniProt P06401); assay type: binding; conditions: 10 μM CV-8814
Endothelin ETA = Endothelin ETA (Homo sapiens, UniProt P25101); assay type: binding; conditions: 10 μM CV-8814
Adrenergic α1B = Adrenergic α1B (Rattus norvegicus, UniProt P15823); assay type: binding; conditions: 10 μM CV-8814
Dopamine D1 = Dopamine D1 (Homo sapiens, UniProt P21728); assay type: binding; conditions: 10 μM CV-8814
Dopamine D2L = Dopamine D2L (Homo sapiens, UniProt P14416); assay type: binding; conditions: 10 μM CV-8814
Cannabinoid CB1 = Cannabinoid CB1 (Homo sapiens, UniProt P21554); assay type: binding; conditions: 10 μM CV-8814
[9] = biological target: Serotonin (5-Hydroxytryptamine) 5-HT2C (Homo sapiens, UniProt P28335); assay type: binding; conditions: 10 μM CV-8814
[10] = biological target: Serotonin (5-Hydroxytryptamine) 5-HT1B (Homo sapiens, UniProt P28222); assay type: binding; conditions: 10 μM CV-8814
Adrenergic β2 = Adrenergic β2 (Homo sapiens, UniProt P07550); assay type: binding; conditions: 10 μM CV-8814
[11] = biological target: Serotonin (5-Hydroxytryptamine) 5-HT2B (Homo sapiens, UniProt P41595); assay type: binding; conditions: 10 μM CV-8814
[12] = biological target: Platelet Activating Factor (PAF) (Homo sapiens, UniProt P25105); assay type: binding; conditions: 10 μM CV-8814
Adrenergic α2A = Adrenergic α2A (Homo sapiens, UniProt P08913); assay type: binding; conditions: 10 μM CV-8814
Monoamine Oxidase MAO-B = Monoamine Oxidase MAO-B (Homo sapiens, UniProt P27338); assay type: biochemical; conditions: 10 μM CV-8814
Opiate δ1 (OP1, DOP) = Opiate δ1 (OP1, DOP) (Homo sapiens, UniProt P41143); assay type: binding; conditions: 10 μM CV-8814

Measured: inhibition at 10 µM

Sequence of Adrenergic α2A (P08913 whole entry): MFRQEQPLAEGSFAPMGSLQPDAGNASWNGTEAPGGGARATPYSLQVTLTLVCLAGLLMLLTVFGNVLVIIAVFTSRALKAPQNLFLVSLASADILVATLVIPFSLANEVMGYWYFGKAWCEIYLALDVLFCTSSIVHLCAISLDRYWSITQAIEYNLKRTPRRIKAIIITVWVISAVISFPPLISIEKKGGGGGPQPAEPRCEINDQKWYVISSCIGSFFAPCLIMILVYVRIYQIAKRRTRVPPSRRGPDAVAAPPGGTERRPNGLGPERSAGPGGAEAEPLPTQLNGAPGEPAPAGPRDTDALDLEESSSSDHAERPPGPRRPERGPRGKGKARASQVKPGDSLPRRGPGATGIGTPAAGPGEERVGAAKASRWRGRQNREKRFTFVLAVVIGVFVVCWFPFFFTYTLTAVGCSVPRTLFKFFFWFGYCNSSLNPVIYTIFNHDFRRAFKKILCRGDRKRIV
Sequence of Progesterone PR-B (P06401 whole entry): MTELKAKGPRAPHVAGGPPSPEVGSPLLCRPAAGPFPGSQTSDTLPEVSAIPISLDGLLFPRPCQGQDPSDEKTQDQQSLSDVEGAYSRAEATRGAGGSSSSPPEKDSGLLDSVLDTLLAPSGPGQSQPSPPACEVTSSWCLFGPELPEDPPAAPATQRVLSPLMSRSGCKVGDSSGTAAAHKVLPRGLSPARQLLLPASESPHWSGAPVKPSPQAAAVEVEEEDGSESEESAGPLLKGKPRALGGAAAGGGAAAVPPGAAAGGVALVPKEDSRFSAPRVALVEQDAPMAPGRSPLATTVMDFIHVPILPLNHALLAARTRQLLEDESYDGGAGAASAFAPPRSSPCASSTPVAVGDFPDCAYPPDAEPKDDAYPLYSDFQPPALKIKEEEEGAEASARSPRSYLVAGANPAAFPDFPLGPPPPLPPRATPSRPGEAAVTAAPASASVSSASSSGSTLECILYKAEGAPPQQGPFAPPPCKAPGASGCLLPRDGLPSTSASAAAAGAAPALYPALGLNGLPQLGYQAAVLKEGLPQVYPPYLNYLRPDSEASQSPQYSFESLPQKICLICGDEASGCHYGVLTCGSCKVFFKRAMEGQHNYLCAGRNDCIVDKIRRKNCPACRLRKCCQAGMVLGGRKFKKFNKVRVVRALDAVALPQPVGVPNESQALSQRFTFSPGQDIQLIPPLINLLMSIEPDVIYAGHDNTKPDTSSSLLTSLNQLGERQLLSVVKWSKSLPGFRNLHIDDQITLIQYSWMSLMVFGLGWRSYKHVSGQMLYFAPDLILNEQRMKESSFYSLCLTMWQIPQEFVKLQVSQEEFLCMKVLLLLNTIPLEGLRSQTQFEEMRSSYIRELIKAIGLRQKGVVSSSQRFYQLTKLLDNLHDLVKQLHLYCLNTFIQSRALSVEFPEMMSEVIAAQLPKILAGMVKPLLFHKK
Sequence of Serotonin (5-Hydroxytryptamine) 5-HT1B (P28222 whole entry): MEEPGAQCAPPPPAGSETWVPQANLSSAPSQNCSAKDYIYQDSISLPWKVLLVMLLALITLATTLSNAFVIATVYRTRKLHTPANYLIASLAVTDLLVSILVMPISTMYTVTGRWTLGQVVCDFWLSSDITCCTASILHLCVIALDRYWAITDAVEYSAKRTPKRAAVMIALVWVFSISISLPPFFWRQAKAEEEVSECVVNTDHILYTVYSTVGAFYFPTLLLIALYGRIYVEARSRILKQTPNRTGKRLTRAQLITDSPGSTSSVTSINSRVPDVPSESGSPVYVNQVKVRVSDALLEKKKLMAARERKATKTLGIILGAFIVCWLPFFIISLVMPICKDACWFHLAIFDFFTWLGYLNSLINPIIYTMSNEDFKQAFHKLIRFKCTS
Sequence of Adenosine A2A (P29274 whole entry): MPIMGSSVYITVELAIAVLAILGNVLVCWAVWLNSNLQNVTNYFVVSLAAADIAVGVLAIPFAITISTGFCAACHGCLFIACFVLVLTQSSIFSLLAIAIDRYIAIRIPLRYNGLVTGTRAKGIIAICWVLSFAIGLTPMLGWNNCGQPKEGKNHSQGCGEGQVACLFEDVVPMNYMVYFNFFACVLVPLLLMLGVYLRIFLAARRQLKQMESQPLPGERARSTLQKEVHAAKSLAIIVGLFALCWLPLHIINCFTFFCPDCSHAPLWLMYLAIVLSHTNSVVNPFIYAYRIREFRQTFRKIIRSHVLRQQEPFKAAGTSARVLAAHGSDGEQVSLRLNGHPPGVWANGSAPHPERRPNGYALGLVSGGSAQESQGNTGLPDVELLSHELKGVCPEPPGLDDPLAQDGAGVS
Sequence of Serotonin (5-Hydroxytryptamine) 5-HT2B (P41595 whole entry): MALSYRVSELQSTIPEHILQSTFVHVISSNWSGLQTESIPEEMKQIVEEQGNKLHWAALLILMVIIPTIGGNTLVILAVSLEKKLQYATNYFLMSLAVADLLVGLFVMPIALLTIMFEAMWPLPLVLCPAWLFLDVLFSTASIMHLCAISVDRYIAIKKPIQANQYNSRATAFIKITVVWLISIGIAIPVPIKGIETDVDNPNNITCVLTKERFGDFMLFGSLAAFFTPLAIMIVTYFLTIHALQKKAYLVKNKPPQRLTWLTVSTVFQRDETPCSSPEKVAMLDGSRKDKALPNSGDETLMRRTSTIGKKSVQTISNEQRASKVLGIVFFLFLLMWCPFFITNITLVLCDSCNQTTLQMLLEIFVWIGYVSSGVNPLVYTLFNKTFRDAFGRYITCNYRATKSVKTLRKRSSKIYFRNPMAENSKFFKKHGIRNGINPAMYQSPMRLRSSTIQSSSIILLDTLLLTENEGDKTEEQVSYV
Sequence of Transporter, Dopamine (DAT) (Q01959 whole entry): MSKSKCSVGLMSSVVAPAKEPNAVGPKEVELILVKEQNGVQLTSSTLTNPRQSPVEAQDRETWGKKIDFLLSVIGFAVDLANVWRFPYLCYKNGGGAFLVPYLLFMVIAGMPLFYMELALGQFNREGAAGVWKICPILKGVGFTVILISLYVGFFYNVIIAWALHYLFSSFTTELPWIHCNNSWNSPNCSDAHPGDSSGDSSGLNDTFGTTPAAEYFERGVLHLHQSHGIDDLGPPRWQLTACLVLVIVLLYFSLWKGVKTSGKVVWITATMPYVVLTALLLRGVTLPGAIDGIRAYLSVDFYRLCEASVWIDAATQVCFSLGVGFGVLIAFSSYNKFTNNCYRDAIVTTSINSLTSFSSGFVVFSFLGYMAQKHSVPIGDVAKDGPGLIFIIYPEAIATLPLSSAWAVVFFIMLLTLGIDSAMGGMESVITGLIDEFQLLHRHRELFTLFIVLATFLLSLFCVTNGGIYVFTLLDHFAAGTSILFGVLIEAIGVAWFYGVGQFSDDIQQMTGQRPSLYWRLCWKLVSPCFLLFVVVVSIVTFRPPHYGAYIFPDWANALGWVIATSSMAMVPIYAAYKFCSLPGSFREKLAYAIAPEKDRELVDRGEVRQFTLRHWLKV
Sequence of Serotonin (5-Hydroxytryptamine) 5-HT2A (P28223 whole entry): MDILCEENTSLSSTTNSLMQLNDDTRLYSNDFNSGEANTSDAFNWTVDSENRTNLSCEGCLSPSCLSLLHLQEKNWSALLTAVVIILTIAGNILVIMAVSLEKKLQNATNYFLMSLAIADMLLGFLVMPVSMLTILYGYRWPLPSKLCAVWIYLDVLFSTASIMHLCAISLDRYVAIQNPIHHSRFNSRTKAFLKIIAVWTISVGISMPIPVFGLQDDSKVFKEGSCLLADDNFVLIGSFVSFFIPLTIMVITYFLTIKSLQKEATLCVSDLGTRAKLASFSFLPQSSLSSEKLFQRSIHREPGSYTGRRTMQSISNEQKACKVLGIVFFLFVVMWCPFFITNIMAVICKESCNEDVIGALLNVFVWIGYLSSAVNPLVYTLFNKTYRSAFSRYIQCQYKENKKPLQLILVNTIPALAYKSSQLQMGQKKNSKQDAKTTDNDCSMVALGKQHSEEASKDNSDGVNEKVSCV
Sequence of Adrenergic α1B (P15823 whole entry): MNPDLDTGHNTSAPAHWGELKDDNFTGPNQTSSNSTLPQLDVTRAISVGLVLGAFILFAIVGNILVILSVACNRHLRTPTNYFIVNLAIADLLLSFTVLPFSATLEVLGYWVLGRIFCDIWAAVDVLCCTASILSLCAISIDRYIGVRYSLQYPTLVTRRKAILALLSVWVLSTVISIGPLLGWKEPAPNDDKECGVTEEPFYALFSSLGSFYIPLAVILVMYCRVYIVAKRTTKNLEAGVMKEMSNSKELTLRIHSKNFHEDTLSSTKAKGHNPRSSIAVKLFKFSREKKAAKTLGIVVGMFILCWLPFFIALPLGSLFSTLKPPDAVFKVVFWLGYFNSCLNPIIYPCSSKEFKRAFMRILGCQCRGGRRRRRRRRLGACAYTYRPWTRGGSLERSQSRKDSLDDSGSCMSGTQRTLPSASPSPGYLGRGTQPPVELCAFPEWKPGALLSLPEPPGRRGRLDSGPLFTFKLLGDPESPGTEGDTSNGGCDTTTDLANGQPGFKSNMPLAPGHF
Sequence of Chemokine CCR1 (P32246 whole entry): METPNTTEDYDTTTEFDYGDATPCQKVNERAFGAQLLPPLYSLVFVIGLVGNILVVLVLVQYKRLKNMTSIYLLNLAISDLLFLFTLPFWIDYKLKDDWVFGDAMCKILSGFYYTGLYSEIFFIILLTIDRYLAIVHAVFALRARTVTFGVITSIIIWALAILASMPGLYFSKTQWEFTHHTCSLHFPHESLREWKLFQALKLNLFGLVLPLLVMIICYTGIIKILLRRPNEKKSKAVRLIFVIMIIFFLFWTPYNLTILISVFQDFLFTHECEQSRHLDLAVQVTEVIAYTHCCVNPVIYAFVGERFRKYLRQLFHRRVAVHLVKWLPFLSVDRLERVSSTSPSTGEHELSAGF
Sequence of Adenosine A1 (P30542 whole entry): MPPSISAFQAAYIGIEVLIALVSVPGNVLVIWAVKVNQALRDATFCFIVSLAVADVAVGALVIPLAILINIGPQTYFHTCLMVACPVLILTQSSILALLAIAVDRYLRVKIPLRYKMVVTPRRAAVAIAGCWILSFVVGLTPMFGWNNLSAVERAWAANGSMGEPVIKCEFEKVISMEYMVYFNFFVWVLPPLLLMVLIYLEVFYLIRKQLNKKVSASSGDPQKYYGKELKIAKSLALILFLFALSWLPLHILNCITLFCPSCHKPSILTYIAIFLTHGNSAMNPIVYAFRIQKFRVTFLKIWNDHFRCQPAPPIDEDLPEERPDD

COc1ccc(CN2CCN(CCO)CC2)c(OC)c1OC [CV-8814, 2-(4-(2,3,4-trimethoxybenzyl)piperazin-1-yl)ethan-1-01]
< 50%: all assays above
